Columns and labels:
[1] = biological target: T1, CYP 3A4 (Homo sapiens, UniProt P08684); assay: Kinetics of fluorogenic substrates with CYP 3A4; assay type: biochemical; settings: for kcat / kcat/Km / type of kinetics / conversion to the same fluorescent product vs the most closely structurally-related substrate: CYP 3A4; for v (1.25 uM), turnover rate at 1.25 μM: CYP 3A4, substrate 1.25 uM; for v (10 uM), turnover rate at 10 μM: CYP 3A4, substrate 10 uM
T1 construct: NADPH regenerating system
Excerpt: Whichever of the four abstractable hydrogen atoms (designated H^1 and H^2 in this representation of BOMR) is removed in the initial reaction step, with reference to Reaction Scheme 1 of FIG. 1, the hydroxylation product will spontaneously decompose to the free resorufin dye. In addition, the benzyloxy group, attached to the carbon carrying the two hydrogens designated H^2, contributes an inductive electronic effect on that carbon, which can stabilize the radical formed during abstraction of one of the H^2 hydrogens by a cytochrome P450.
Optimization of assay conditions was, and is preferably, accomplished through statistically validated Design of Experiments methodologies, using the commercial software package "Design-Expert®" produced by Stat-Ease® Inc. The data shown in FIGS. 4 and 5 were obtained with initial optimization.
For further understanding these terms in the context of this invention, attention is directed to FIG. 4 and the analysis of FIG. 4.

[2] = biological target: CYP 2C19 (Homo sapiens, UniProt P33261); assay: Kinetics of fluorogenic substrates with CYP 2C19; assay type: biochemical; settings: for kcat / kcat/Km / conversion to the same fluorescent product vs the most closely structurally-related substrate / type of kinetics: CYP 2C19; for v (1.25 uM), turnover rate at 1.25 μM: CYP 2C19, substrate 1.25 uM; for v (10 uM), turnover rate at 10 μM: CYP 2C19, substrate 10 uM
CYP 2C19, sequence (P33261 whole entry): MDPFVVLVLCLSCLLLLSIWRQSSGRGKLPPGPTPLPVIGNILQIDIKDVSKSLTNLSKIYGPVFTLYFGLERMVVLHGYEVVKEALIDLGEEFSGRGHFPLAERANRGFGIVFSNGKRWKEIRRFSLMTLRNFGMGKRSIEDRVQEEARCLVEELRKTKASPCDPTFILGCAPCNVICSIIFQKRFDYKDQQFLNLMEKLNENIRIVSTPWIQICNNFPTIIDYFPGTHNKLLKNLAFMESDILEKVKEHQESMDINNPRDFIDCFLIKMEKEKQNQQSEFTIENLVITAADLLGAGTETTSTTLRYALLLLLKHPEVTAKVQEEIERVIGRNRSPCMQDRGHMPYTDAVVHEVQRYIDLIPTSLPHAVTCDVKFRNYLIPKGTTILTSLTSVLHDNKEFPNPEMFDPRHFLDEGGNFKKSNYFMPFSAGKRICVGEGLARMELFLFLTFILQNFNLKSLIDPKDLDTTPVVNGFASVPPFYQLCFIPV

[3] = biological target: T2, CYP 2B6 (Homo sapiens, UniProt P20813)
T2 sequence (P20813 1-491): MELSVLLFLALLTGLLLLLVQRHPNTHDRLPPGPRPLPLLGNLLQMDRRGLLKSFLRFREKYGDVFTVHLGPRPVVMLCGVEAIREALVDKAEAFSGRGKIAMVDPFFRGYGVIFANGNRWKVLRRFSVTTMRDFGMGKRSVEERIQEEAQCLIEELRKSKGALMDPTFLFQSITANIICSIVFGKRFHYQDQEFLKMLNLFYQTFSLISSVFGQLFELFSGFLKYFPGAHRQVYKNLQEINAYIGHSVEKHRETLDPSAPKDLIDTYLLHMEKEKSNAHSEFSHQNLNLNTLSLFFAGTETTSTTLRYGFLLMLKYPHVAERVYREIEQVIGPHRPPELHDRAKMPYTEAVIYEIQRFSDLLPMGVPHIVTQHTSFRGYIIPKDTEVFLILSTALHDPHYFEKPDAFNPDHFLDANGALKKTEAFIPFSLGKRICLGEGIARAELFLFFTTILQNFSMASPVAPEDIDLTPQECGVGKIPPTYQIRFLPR

[4] = biological target: CYP 2C9 (Homo sapiens, UniProt P11712); assay: Kinetics of fluorogenic substrates with CYP 2C9; assay type: biochemical; settings: for conversion to the same fluorescent product vs the most closely structurally-related substrate / kcat / type of kinetics / kcat/Km: CYP 2C9; for v (1.25 uM), turnover rate at 1.25 μM: CYP 2C9, substrate 1.25 uM; for v (10 uM), turnover rate at 10 μM: CYP 2C9, substrate 10 uM
CYP 2C9, sequence (P11712 whole entry): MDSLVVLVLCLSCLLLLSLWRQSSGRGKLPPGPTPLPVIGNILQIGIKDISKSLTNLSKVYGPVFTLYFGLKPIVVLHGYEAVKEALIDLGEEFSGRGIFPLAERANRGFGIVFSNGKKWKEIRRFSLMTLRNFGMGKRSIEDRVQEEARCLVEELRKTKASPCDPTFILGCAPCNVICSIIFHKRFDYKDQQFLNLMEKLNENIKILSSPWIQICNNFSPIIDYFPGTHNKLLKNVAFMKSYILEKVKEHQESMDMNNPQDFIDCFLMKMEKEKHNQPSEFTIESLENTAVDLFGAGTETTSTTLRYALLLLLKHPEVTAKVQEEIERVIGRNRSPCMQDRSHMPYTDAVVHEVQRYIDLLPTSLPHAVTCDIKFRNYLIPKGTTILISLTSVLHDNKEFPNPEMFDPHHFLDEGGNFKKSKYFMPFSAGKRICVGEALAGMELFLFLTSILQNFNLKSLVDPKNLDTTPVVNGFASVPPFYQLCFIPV

[5] = biological target: CYP 2D6 (Homo sapiens, UniProt P10635); assay: Kinetics of fluorogenic substrates with CYP 2D6; assay type: biochemical; settings: for kcat / kcat/Km: CYP 2D6; for v (1.25 uM), turnover rate at 1.25 μM: CYP 2D6, substrate 1.25 uM; for v (10 uM), turnover rate at 10 μM: CYP 2D6, substrate 10 uM
CYP 2D6, sequence (P10635 whole entry): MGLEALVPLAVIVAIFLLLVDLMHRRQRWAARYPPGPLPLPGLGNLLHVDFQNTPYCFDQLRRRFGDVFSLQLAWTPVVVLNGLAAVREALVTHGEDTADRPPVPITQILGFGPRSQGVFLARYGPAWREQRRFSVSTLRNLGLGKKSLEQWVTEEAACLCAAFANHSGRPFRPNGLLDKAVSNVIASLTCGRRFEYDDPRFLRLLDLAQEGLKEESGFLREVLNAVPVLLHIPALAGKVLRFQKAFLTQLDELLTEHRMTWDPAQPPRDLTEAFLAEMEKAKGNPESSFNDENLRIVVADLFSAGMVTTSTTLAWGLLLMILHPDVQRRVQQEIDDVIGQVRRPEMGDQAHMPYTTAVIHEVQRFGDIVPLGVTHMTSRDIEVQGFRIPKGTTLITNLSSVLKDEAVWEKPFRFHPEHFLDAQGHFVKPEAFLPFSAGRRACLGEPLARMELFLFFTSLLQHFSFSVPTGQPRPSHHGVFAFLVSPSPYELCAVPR

[6] = in parentheses: from Michaelis-Menten fit (sigmoidal kinetics)

T1 sequence (P08684 whole entry): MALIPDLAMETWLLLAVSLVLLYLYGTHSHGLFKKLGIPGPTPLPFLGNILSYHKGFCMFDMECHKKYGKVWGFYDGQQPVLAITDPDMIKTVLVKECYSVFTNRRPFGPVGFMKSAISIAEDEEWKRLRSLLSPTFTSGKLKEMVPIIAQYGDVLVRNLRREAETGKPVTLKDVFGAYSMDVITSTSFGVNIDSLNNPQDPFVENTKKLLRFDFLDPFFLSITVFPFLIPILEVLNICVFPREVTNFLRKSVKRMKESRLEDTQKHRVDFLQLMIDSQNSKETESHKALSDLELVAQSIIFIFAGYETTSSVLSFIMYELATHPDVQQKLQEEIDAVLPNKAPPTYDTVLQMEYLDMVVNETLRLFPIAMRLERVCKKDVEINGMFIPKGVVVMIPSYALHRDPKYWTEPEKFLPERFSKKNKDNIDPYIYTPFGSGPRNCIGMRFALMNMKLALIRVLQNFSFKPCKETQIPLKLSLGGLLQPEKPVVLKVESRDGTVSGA

| kcat [1] [s⁻¹] | kcat/Km [1] [M⁻¹ s⁻¹] | v (1.25 uM), turnover rate at 1.25 μM [1] [min⁻¹] | v (10 uM), turnover rate at 10 μM [1] [min⁻¹] | kcat [2] [s⁻¹] | kcat/Km [2] [M⁻¹ s⁻¹] | v (1.25 uM), turnover rate at 1.25 μM [2] [min⁻¹] | v (10 uM), turnover rate at 10 μM [2] [min⁻¹] | type of kinetics [1] | v (1.25 uM), turnover rate at 1.25 μM [4] [min⁻¹] | v (10 uM), turnover rate at 10 μM [4] [min⁻¹] | SMILES | further results |
| --- | --- | --- | --- | --- | --- | --- | --- | --- | --- | --- | --- | --- |
| 0.0198 | 4506 | 0.2274 | 0.981 | 0.0283 | 4106 | 0.179 | 1.043 |  |  |  | CCCCCCCCOCOc1ccc2cc(C#N)c(=O)oc2c1 [OOMCC] |  |
|  |  | 0.04 | 0.81 |  |  |  |  | linear |  |  | O=c1cc(C(F)(F)F)c2ccc(OCc3ccccc3)cc2o1 [BFC, 7-Benzyloxy-4-trifluoromethylcoumarin, reference compound] |  |
|  |  |  |  | 0.0067 | 784 | 0.03 | 0.23 |  |  |  | CCN(CC)Cc1cc(=O)oc2cc(OC)ccc12 [DMMC] |  |
| 0.0138 | 5123 | 0.1992 | 0.6241 |  |  |  |  |  |  |  | O=C(OCc1ccccc1)c1c2oc3cc(OCc4ccccc4)ccc3nc-2ccc1=O [BRCBE] |  |
| 0.1 | 14286 | 0.4402 | 4.2041 |  |  |  |  |  |  |  | CC1(C)C2=C(Cl)C(=O)C(Cl)=CC2=Nc2ccc(OCOCc3ccccc3)cc21 [BOMDDAO] |  |
| 0.0183 | 13095 | 0.55 | 0.88 |  |  |  |  | Michaelis- |  |  | O=c1ccc2nc3ccc(OCOCc4ccccc4)cc3oc-2c1 [BOMR, Benzyloxymethylresorufin] | conversion to the same fluorescent product vs the most closely structurally-related substrate [1]: more efficient conversion; turnover rate (kcat) ([1]; CYP 3A4, FIG. 4 data): 0.5 s⁻¹; CYP 3A4 turnover rate of BOMR relative to BR ([1]; FIG. 4 data): approximately five times greater; enzymatic efficiency (kcat /Km) of CYP 3A4 towards BOMR relative to BR ([1]; FIG. 4 data): 14 times; conversion to the same fluorescent product vs the most closely structurally-related substrate [3]: more efficient conversion; kcat [3]: 0.013 s⁻¹; kcat/Km [3]: 18265 M⁻¹ s⁻¹; type of kinetics [3]: Michaelis-; v (1.25 uM), turnover rate at 1.25 μM [3]: 0.28 min⁻¹; v (10 uM), turnover rate at 10 μM [3]: 0.71 min⁻¹ |
|  |  | 0.12 | 0.98 | 0.0317 | 2262 | 0.16 | 0.68 | sigmoidal | 0.04 | 0.42 | N#Cc1cc2ccc(OCOCc3ccccc3)cc2oc1=O [BOMCC, 7-Benzyloxymethyloxy-3-cyanocoumarin] | conversion to the same fluorescent product vs the most closely structurally-related substrate [1]: more efficient conversion; kcat [1, 6]: 0.167 s⁻¹; kcat/Km [1, 6]: 1873 M⁻¹ s⁻¹; conversion to the same fluorescent product vs the most closely structurally-related substrate [2]: more efficient conversion; type of kinetics [2]: Michaelis-; conversion to the same fluorescent product vs the most closely structurally-related substrate [4]: more efficient conversion; kcat [4]: 0.035 s⁻¹; type of kinetics [4]: Michaelis-; conversion to the same fluorescent product vs the most closely structurally-related substrate [3]: more efficient conversion; kcat [3]: 1.1 s⁻¹; kcat/Km [3]: 21154 M⁻¹ s⁻¹; type of kinetics [3]: Michaelis-; v (1.25 uM), turnover rate at 1.25 μM [3]: 0.38 min⁻¹; v (10 uM), turnover rate at 10 μM [3]: 3.05 min⁻¹ |
| 0.011 | 7857 | 0.323 | 0.601 | 0.00283 | 4048 | 0.1 | 0.13 |  | 0.137 | 0.31 | CCCCCCCCOCOc1ccc2nc3ccc(=O)cc-3oc2c1 [OOMR, Octyloxymethylresorufin] | kcat [4]: 0.0067 s⁻¹; kcat/Km [4]: 2564 M⁻¹ s⁻¹ |
|  |  |  |  | 0.0017 | 234 | 0.02 | 0.06 |  | 0.00 | 0.00 | N#Cc1cc2ccc(OCc3ccccc3)cc2oc1=O [BCC, 7-Benzyloxy-3-cyanocoumarin, reference compound] | type of kinetics [2]: Michaelis-; kcat [3]: 0.0017 s⁻¹; kcat/Km [3]: 1064 M⁻¹ s⁻¹; type of kinetics [3]: Michaelis-; v (1.25 uM), turnover rate at 1.25 μM [3]: 0.04 min⁻¹; v (10 uM), turnover rate at 10 μM [3]: 0.07 min⁻¹ |
|  |  |  |  |  |  | 0.01 | 0.07 |  | 0.00 | 0.04 | COc1ccc2cc(C#N)c(=O)oc2c1 [3CMC, 3-cyano-7-methoxycoumarin, reference compound] | type of kinetics [2]: linear; kcat [4]: 0.0067 s⁻¹; kcat/Km [4]: 85 M⁻¹ s⁻¹; type of kinetics [4]: linear |
| 0.0017 |  | 0.03 | 0.10 |  |  |  |  | Michaelis- |  |  | CCOCOc1ccc2nc3ccc(=O)cc-3oc2c1 [EOMR] | conversion to the same fluorescent product vs the most closely structurally-related substrate [1]: more efficient conversion |
|  |  |  |  | 0.0325 | 568 | 0.027 | 0.232 |  |  |  | CC(C)Oc1ccc2cc(C#N)c(=O)oc2c1 [IPCC] | kcat [5]: 0.0017 s⁻¹; kcat/Km [5]: 93 M⁻¹ s⁻¹; v (1.25 uM), turnover rate at 1.25 μM [5]: 0.0076 min⁻¹; v (10 uM), turnover rate at 10 μM [5]: 0.0378 min⁻¹ |
| 0.001 | 167 | 0.0083 | 0.0338 |  |  | 0.06 | 0.062 |  |  |  | COCOc1ccc2nc3ccc(=O)cc-3oc2c1 [MOMR] | kcat [5]: 0.00567 s⁻¹; kcat/Km [5]: 708 M⁻¹ s⁻¹; v (1.25 uM), turnover rate at 1.25 μM [5]: 0.03396 min⁻¹; v (10 uM), turnover rate at 10 μM [5]: 0.2146 min⁻¹ |
| 0.0667 |  | 0.11 | 1.41 |  |  |  |  | Michaelis- |  |  | O=c1cc(C(F)(F)F)c2ccc(OCOCc3ccccc3)cc2o1 [BOMFC] | conversion to the same fluorescent product vs the most closely structurally-related substrate [1]: more efficient conversion |
|  |  |  |  | 0.0083 | 2604 | 0.14 | 0.38 |  | 0.01 | 0.07 | COCOc1ccc2cc(C#N)c(=O)oc2c1 [MOMCC] | conversion to the same fluorescent product vs the most closely structurally-related substrate [2]: more efficient conversion; type of kinetics [2]: Michaelis-; conversion to the same fluorescent product vs the most closely structurally-related substrate [4]: more efficient conversion; kcat [4]: 0.0033 s⁻¹; kcat/Km [4]: 167 M⁻¹ s⁻¹; type of kinetics [4]: Michaelis |
